# In patent US20220280594A1, “APPLICATION OF POLYPEPTIDE OR DERIVATIVE THEREOF” (CHENGDU HUITAI BIOMEDICINE CO., LTD., priority 2019, published 2022):
# Ends that are not written are not given here. PEG = not defined here
# Test system: human lung cancer cells (A549) subcutaneous xenograft
# Experiment: lung cancer subcutaneous xenograft animal model, intratumoral injection
# Type: in vivo, mice (BALB/c-nu/nu)
# Conditions: intratumoral 5 mg/kg once every other day, 20 days; for Weight of tumor (g) (mean ± SD): control 1.92 ± 0.13; for Volume of tumor (mm^3) (mean ± SD): control 1700.16 ± 305.72
# Procedure: Experimental animals: 4-6 weeks old female immunodeficiency mice (BALB/c-nu/nu, Beijing Vital River Laboratory Animal Technology Co., Ltd.).
# Subcutaneous xenograft animal model. The number of cells inoculated subcutaneously vin mice was about 2×10^6/200 μL. When the volume of the subcutaneous tumor was greater than 100 mm^3, the mice were randomly divided into groups and subjected to treatment. When the mass volume of the tumors in model control group reached 2000 mm^3 or the animal dies, the treatment ended. The animals were dissected, the tumors were taken out, and the weight and volume of the tumors were measured. During the period of the entire experiment, the mice were observed and the body weight was measured every other day.
# The method used for the drug efficacy test in the animal model of the subcutaneous xenograft derived from lung cancer cells was as described in Example 5. The tumor cells were human lung cancer cells (A549), and the route of administration was intratumoral injection. There were two groups: the model control group and the polypeptide or its derivative treatment group (N1-N12). The drug dosage of the treatment group was 5 mg/kg, once every other day and the treatment time was 10 days.
# The procedure of the efficacy test in this example, route and dosage of administration were the same as in Example 9. The peptides used in the experiment were N13-N32. The treatment time was 20 days.
Substance,Weight of tumor (g) (mean ± SD),Volume of tumor (mm^3) (mean ± SD)
"N32: SEQ ID NO: 1 with deletion of positions 1-3, addition of one amino acid and PEG modification at the carboxyl terminal (RFLAKENVTQDAEDNC-{PEG}; reading uncertain)",0.88 ± 0.25 g,984.03 ± 184.86 mm^3
"N26: SEQ ID NO: 1 with substitution A15R, addition of one amino acid at the amino terminal and one at the carboxyl terminal (FYRVRFLAKENVTQDREDNC)",0.8 ± 0.22 g,1053.55 ± 175.83 mm^3
N16: SEQ ID NO: 1 with substitution A7R and addition of one amino acid at the carboxyl terminus (YRVRFLRKENVTQDAEDNC),0.83 ± 0.27 g,897.27 ± 176.16 mm^3
N21: SEQ ID NO: 1 with deletion of positions 1-5 and 15-18 and addition of one amino acid at the amino terminal (SLAKENVTQD),0.9 ± 0.28 g,967.35 ± 247.89 mm^3
N14: SEQ ID NO: 1 with deletion of positions 1-5 and addition of one amino acid at the carboxyl terminal (LAKENVTQDAEDNC),1.09 ± 0.29 g,913.68 ± 219.62 mm^3
N13: SEQ ID NO: 1 with deletion of positions 15-18 and positions 1-5 (LAKENVTQD),1.09 ± 0.09 g,986.7 ± 261.02 mm^3
N30: SEQ ID NO: 1 with deletion of positions 1-5 and 15-18 and PEG modification at the carboxyl terminal (LAKENVTQD-{PEG}; reading uncertain),0.9 ± 0.22 g,913.9 ± 204.07 mm^3
"N23: SEQ ID NO: 1 with substitution A7R, deletion of position 11 and of positions 15-18 (YRVRFLRKENTQDAED)",0.83 ± 0.29 g,838.73 ± 218 mm^3
N29: SEQ ID NO: 1 with deletion of positions 1-5 and 15-18 and PEG modification at the amino terminal ({PEG}-LAKENVTQD; reading uncertain),0.82 ± 0.22 g,949 ± 227.4 mm^3
N18: SEQ ID NO: 1 with addition of one amino acid at the amino terminal and one at the carboxyl terminal (FYRVRFLAKENVTQDAEDNC),0.75 ± 0.26 g,969.37 ± 243.04 mm^3
N28: SEQ ID NO: 1 with deletion of positions 1-2 and 18 and PEG modification at the amino terminal ({PEG}-VRFLAKENVTQDAED; reading uncertain),0.81 ± 0.24 g,1055.02 ± 222.45 mm^3
"N31: SEQ ID NO: 1 with deletion of positions 3, 4, 11 and 15-18 and PEG modification at the carboxyl terminal (YRFLAKENTQD-{PEG}; reading uncertain)",0.71 ± 0.16 g,900.88 ± 255.61 mm^3
N27: SEQ ID NO: 1 with addition of one amino acid at the carboxyl terminal and PEG modification at the carboxyl terminal (YRVRFLAKENVTQDAEDNC-{PEG}; reading uncertain),0.95 ± 0.22 g,1059.51 ± 161.22 mm^3
"N24: SEQ ID NO: 1 with substitution A7R, deletion of positions 1-2 and of position 18 (VRFLRKENVTQDAED)",0.83 ± 0.29 g,908.37 ± 256.24 mm^3
N25: SEQ ID NO: 1 with substitution N18R and addition of two amino acids at the carboxyl terminal (YRVRFLAKENVTQDAEDRCT),0.71 ± 0.18 g,958.87 ± 351.9 mm^3
N17: SEQ ID NO: 1 with addition of two amino acids to the carboxyl terminal (YRVRFLAKENVTQDAEDNCT),0.76 ± 0.26 g,893.18 ± 234.75 mm^3
N15: SEQ ID NO: 1 with substitution N18R and addition of one amino acid to the carboxyl terminal (YRVRFLAKENVTQDAEDRC),0.63 ± 0.13 g,793.32 ± 173.3 mm^3
N20: SEQ ID NO: 1 with addition of one amino acid at the amino terminal and deletion of position 18 (RYRVRFLAKENVTQDAED),0.89 ± 0.22 g,1037.56 ± 256.6 mm^3
"N22: SEQ ID NO: 1 with substitution A7R, deletion of three amino acids at the amino terminal and of positions 15-18 (RFLRKENVTQD)",0.83 ± 0.33 g,835.73 ± 184.67 mm^3
N19: SEQ ID NO: 1 with deletion of positions 1-5 and 15-18 and addition of two amino acids at the carboxyl terminal (LAKENVTQDRC),0.81 ± 0.29 g,963.18 ± 185.31 mm^3
